Measured values reported in PubChem BioAssay (NCI).
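Method: 48-hour compound exposure of cells in 96-well plates, five concentrations, linear interpolation of endpoints. GI50 = concentration required for 50% inhibition of growth. TGI: concentration producing complete growth inhibition.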

Assays:
Experiment in all cases: inhibition of tumour cell growth, NCI panel, 48 h
NCI-H226 lung = tested on: NCI-H226 lung
HOP-62 NSCLC = tested on: HOP-62 NSCLC
HCT-15 colon = tested on: HCT-15 colon
MDA-MB-435 = tested on: MDA-MB-435
MDA-MB-231 breast = tested on: MDA-MB-231 breast
SW-620 colon = tested on: SW-620 colon
EKVX NSCLC = tested on: EKVX NSCLC
M14 melanoma = tested on: M14 melanoma
HCT-116 colon = tested on: HCT-116 colon
DU-145 prostate = tested on: DU-145 prostate
A549 NSCLC = tested on: A549 NSCLC
SF-295 CNS = tested on: SF-295 CNS
KM12 colon = tested on: KM12 colon
OVCAR-8 ovarian = tested on: OVCAR-8 ovarian
CCRF-CEM leukemia = tested on: CCRF-CEM leukemia
U251 CNS = tested on: U251 CNS
BT-549 breast = tested on: BT-549 breast
HS 578T breast = tested on: HS 578T breast
ACHN renal = tested on: ACHN renal
OVCAR-3 ovarian = tested on: OVCAR-3 ovarian
786-0 renal = tested on: 786-0 renal
SK-OV-3 ovarian = tested on: SK-OV-3 ovarian
SN12C renal = tested on: SN12C renal
PC-3 prostate = tested on: PC-3 prostate
SF-268 CNS = tested on: SF-268 CNS
NCI/ADR-RES ovarian = tested on: NCI/ADR-RES ovarian
NCI-H522 lung = tested on: NCI-H522 lung
UACC-62 melanoma = tested on: UACC-62 melanoma
TK-10 renal = tested on: TK-10 renal
SK-MEL-2 melanoma = tested on: SK-MEL-2 melanoma
HL-60(TB) leukemia = tested on: HL-60(TB) leukemia
MALME-3M melanoma = tested on: MALME-3M melanoma
HT29 colon = tested on: HT29 colon
K-562 leukemia = tested on: K-562 leukemia
SNB-75 CNS = tested on: SNB-75 CNS
RXF 393 renal = tested on: RXF 393 renal
UACC-257 melanoma = tested on: UACC-257 melanoma
SNB-19 CNS = tested on: SNB-19 CNS
HCC-2998 colon = tested on: HCC-2998 colon
SK-MEL-28 melanoma = tested on: SK-MEL-28 melanoma
MDA-MB-468 breast = tested on: MDA-MB-468 breast
HOP-92 NSCLC = tested on: HOP-92 NSCLC
COLO 205 colon = tested on: COLO 205 colon
A498 renal = tested on: A498 renal
NCI-H460 lung = tested on: NCI-H460 lung
SR leukemia = tested on: SR leukemia
RPMI-8226 leukemia = tested on: RPMI-8226 leukemia
MOLT-4 leukemia = tested on: MOLT-4 leukemia
UO-31 renal = tested on: UO-31 renal
OVCAR-4 ovarian = tested on: OVCAR-4 ovarian
LOX IMVI melanoma = tested on: LOX IMVI melanoma
NCI-H23 lung = tested on: NCI-H23 lung
SK-MEL-5 melanoma = tested on: SK-MEL-5 melanoma
CAKI-1 renal = tested on: CAKI-1 renal
MCF7 breast = tested on: MCF7 breast
OVCAR-5 ovarian = tested on: OVCAR-5 ovarian
SF-539 CNS = tested on: SF-539 CNS
IGROV1 ovarian = tested on: IGROV1 ovarian
T-47D breast = tested on: T-47D breast

CN1CCN(c2ccc3c(c2)nc(NNC(=O)c2cnccn2)c2cccn23)CC1
GI50 (NCI-H226 lung): 801 nM | TGI (NCI-H226 lung): 3120 nM | GI50 (HOP-62 NSCLC): 361 nM | TGI (HOP-62 NSCLC): 11300 nM | GI50 (HCT-15 colon): 109 nM | TGI (HCT-15 colon): 1790 nM | GI50 (MDA-MB-435): 1960 nM | TGI (MDA-MB-435): 18400 nM | GI50 (MDA-MB-231 breast): 607 nM | TGI (MDA-MB-231 breast): 6950 nM | GI50 (SW-620 colon): 638 nM | TGI (SW-620 colon): 12600 nM | GI50 (EKVX NSCLC): 277 nM | TGI (EKVX NSCLC): 3470 nM | GI50 (M14 melanoma): 517 nM | TGI (M14 melanoma): 3870 nM | GI50 (HCT-116 colon): 259 nM | TGI (HCT-116 colon): 5610 nM | GI50 (DU-145 prostate): 912 nM | TGI (DU-145 prostate): 8580 nM | GI50 (A549 NSCLC): 768 nM | TGI (A549 NSCLC): 12100 nM | GI50 (SF-295 CNS): 229 nM | TGI (SF-295 CNS): 3150 nM | GI50 (KM12 colon): 359 nM | TGI (KM12 colon): 14900 nM | GI50 (OVCAR-8 ovarian): 383 nM | TGI (OVCAR-8 ovarian): 7010 nM | GI50 (CCRF-CEM leukemia): 182 nM | TGI (CCRF-CEM leukemia): 1980 nM | GI50 (U251 CNS): 370 nM | TGI (U251 CNS): 11700 nM | GI50 (BT-549 breast): 849 nM | TGI (BT-549 breast): 13400 nM | GI50 (HS 578T breast): 3600 nM | TGI (HS 578T breast): 70300 nM | GI50 (ACHN renal): 256 nM | TGI (ACHN renal): 1740 nM | GI50 (OVCAR-3 ovarian): 406 nM | TGI (OVCAR-3 ovarian): 5840 nM | GI50 (786-0 renal): 401 nM | TGI (786-0 renal): 2400 nM | GI50 (SK-OV-3 ovarian): 538 nM | TGI (SK-OV-3 ovarian): 5020 nM | GI50 (SN12C renal): 583 nM | TGI (SN12C renal): 11800 nM | GI50 (PC-3 prostate): 386 nM | TGI (PC-3 prostate): 8510 nM | GI50 (SF-268 CNS): 479 nM | TGI (SF-268 CNS): 13200 nM | GI50 (NCI/ADR-RES ovarian): 829 nM | TGI (NCI/ADR-RES ovarian): 2970 nM | GI50 (NCI-H522 lung): 944 nM | TGI (NCI-H522 lung): 6690 nM | GI50 (UACC-62 melanoma): 444 nM | TGI (UACC-62 melanoma): 2710 nM | GI50 (TK-10 renal): 158 nM | TGI (TK-10 renal): 2320 nM | GI50 (SK-MEL-2 melanoma): 1210 nM | TGI (SK-MEL-2 melanoma): 6140 nM | GI50 (HL-60(TB) leukemia): 175 nM | TGI (HL-60(TB) leukemia): 1650 nM | GI50 (MALME-3M melanoma): 1620 nM | TGI (MALME-3M melanoma): 6990 nM | GI50 (HT29 colon): 505 nM | TGI (HT29 colon): 4560 nM | GI50 (K-562 leukemia): 631 nM | TGI (K-562 leukemia): 11600 nM | GI50 (SNB-75 CNS): 2930 nM | TGI (SNB-75 CNS): 18000 nM | GI50 (RXF 393 renal): 1060 nM | TGI (RXF 393 renal): 3350 nM | GI50 (UACC-257 melanoma): 2150 nM | TGI (UACC-257 melanoma): 7100 nM | GI50 (SNB-19 CNS): 812 nM | TGI (SNB-19 CNS): 14600 nM | GI50 (HCC-2998 colon): 453 nM | TGI (HCC-2998 colon): 5800 nM | GI50 (SK-MEL-28 melanoma): 719 nM | TGI (SK-MEL-28 melanoma): 12100 nM | GI50 (MDA-MB-468 breast): 324 nM | TGI (MDA-MB-468 breast): 2370 nM | GI50 (HOP-92 NSCLC): 564 nM | TGI (HOP-92 NSCLC): 5540 nM | GI50 (COLO 205 colon): 445 nM | TGI (COLO 205 colon): 9940 nM | GI50 (A498 renal): 1770 nM | TGI (A498 renal): 3320 nM | GI50 (NCI-H460 lung): 229 nM | TGI (NCI-H460 lung): 4720 nM | GI50 (SR leukemia): 160 nM | GI50 (RPMI-8226 leukemia): 756 nM | TGI (RPMI-8226 leukemia): 12700 nM | GI50 (MOLT-4 leukemia): 244 nM | GI50 (UO-31 renal): 96.4 nM | TGI (UO-31 renal): 1510 nM | GI50 (OVCAR-4 ovarian): 605 nM | TGI (OVCAR-4 ovarian): 12900 nM | GI50 (LOX IMVI melanoma): 203 nM | TGI (LOX IMVI melanoma): 6250 nM | GI50 (NCI-H23 lung): 801 nM | TGI (NCI-H23 lung): 12300 nM | GI50 (SK-MEL-5 melanoma): 1090 nM | TGI (SK-MEL-5 melanoma): 2770 nM | GI50 (CAKI-1 renal): 463 nM | TGI (CAKI-1 renal): 5270 nM | GI50 (MCF7 breast): 697 nM | TGI (MCF7 breast): 7500 nM | GI50 (OVCAR-5 ovarian): 1180 nM | TGI (OVCAR-5 ovarian): 12100 nM | GI50 (SF-539 CNS): 645 nM | TGI (SF-539 CNS): 6830 nM | GI50 (IGROV1 ovarian): 413 nM | TGI (IGROV1 ovarian): 10700 nM | GI50 (T-47D breast): 1720 nM | TGI (T-47D breast): 9440 nM
